Source: US12729186B2, “Prodrugs for sustained releasing therapeutic agents and uses thereof” (LIANGJIANG MEDICINE CO., LTD., priority 2020, dated 2026)

Test: Drug release assay (hydrolysis rate test in pH 7.4 / pH 2.0 buffer, HPLC)
Format: physicochemical
Details: for Hydrolysis constant Kh pH 2.0 / Hydrolysis constant Kh pH 7.4: Kh=-ln[100%-Release rate (%)]/t; for Release rate (%) pH 2.0 (6 h): pH 2.0 buffer solution; for Release rate (%) pH 2.0 (6 h) / Release rate (%) pH 7.4 (0.5 h) / Release rate (%) pH 7.4 (6 h): 37° C., 200 rpm, residual content relative to 0 h by HPLC; for Release rate (%) pH 7.4 (0.5 h) / Release rate (%) pH 7.4 (6 h): pH 7.4 buffer solution
Description: Preparation of pH2.0 Buffer Solution
Preparation of pH7.4 Buffer Solution
Method of Hydrolysis Rate Test
The compounds were dissolved in pH7.4/pH2.0 buffer solution, placed in a constant temperature shaker at 37° C. and 200 rpm, and sampled at 0 h, 0.5 h and 6 h respectively. The residual contents of the compounds relative to 0 h were tested at each time point.
The release rates (%) were calculated using the following equation: Release rate (%)=[A(0h)−A(xh)]/A(0h)×100%, (x=0, 0.5, 6), A(xh) is the peak area of compounds tested by HPLC at the indicated time point.
The hydrolysis constants (Kh) were calculated using the following equation: Hydrolysis constant Kh=−ln[100%−Release rate (%)]/t Results

Row | SMILES | Hydrolysis constant Kh pH 2.0 | Release rate (%) pH 2.0 (6 h) | Hydrolysis constant Kh pH 7.4 | Release rate (%) pH 7.4 (0.5 h) | Release rate (%) pH 7.4 (6 h)
1 | CCCCN1CCC(c2ccc(OC(=O)Oc3ccc4nc5c(c(CC)c4c3)Cn3c-5cc4c(c3=O)COC(=O)[C@]4(O)CC)cc2)CC1 [Example 17, (S)-4-(1-butylpiperidin-4-yl)phenyl (4,11-diethyl-4-hydroxy-3,14-dioxo-3,4,12,14-tetrahydro-1H-pyrano[3′,4′:6,7]indolizino[1,2-b]quinolin-9-yl) carbonate] | 0.095 | 43.6% | 0.096 | 4.7% | 57.4%
2 | CCCCCCCN1CCC(COC(=O)Oc2ccc3nc4c(c(CC)c3c2)Cn2c-4cc3c(c2=O)COC(=O)[C@]3(O)CC)CC1 [Example 18, (S)-4,11-diethyl-4-hydroxy-3,14-dioxo-3,4,12,14-tetrahydro-1H-pyrano[3′,4′:6,7]indolizino[1,2-b]quinolin-9-yl ((1-heptylpiperidin-4-yl)methyl) carbonate] | <0.001 | 0.3% | 0.184 | 8.8% | 11.9%
3 | CCc1c2c(nc3ccc(OC(=O)CN(C4CCCCC4)C4CCCCC4)cc13)-c1cc3c(c(=O)n1C2)COC(=O)[C@]3(O)CC [Example 19, (S)-4,11-diethyl-4-hydroxy-3,14-dioxo-3,4,12,14-tetrahydro-1H-pyrano[3′,4′:6,7]indolizino[1,2-b]quinolin-9-yl dicyclohexylglycinate] | 0.041 | 21.8% | 0.865 | 35.1% | 100%
4 | CC[C@@]1(O)C(=O)OCc2c1cc1n(c2=O)Cc2cc3cc(OC(=O)OCC4CCCN4C(c4ccccc4)c4ccccc4)ccc3nc2-1 (stereo partly drawn) [Example 20, (1-Benzhydrylpyrrolidin-2-yl)methyl ((S)-4-ethyl-4-hydroxy-3,14-dioxo-3,4,12,14-tetrahydro-1H-pyrano[3′,4′:6,7]indolizino[1,2-b]quinolin-9-yl) carbonate] | 0.078 | 37.2% | >20 | 100% | 100%
5 | Cn1nnc2c(C(=O)NC(=O)Oc3ccc(CC4CCN(C(c5ccccc5)c5ccccc5)CC4)cc3)ncn2c1=O [Example 21, 4-((1-Benzhydrylpiperidin-4-yl)methyl)phenyl (3-methyl-4-oxo-3,4-dihydroimidazo[5,1-d][1,2,3,5]tetrazine-8-carbonyl)carbamate] | <0.001 | 0% | 3.397 | 81.7% | 100%
6 | Cn1nnc2c(C(=O)NCc3ccc(CC4CCN(C(c5ccccc5)c5ccccc5)CC4)cc3)ncn2c1=O [Example 22, N-(4-((1-benzhydrylpiperidin-4-yl)methyl)benzyl)-3-methyl-4-oxo-3,4-dihydroimidazo[5,1-d][1,2,3,5]tetrazine-8-carboxamide] | <0.001 | 0% | 0.267 | 12.5% | 85.4%
7 | COc1cccc2c1C(=O)c1c(O)c3c(c(O)c1C2=O)C[C@@](O)(C(C)=O)C[C@@H]3O[C@H]1C[C@H](NC(=O)Oc2ccc(CN3CCN(C)CC3)cc2)[C@H](OC(C)=O)[C@H](C)O1 [Example 23, (2S,3S,4S,6R)-6-(((1S,3S)-3-acetyl-3,5,12-trihydroxy-10-methoxy-6,11-dioxo-1,2,3,4,6,11-hexahydrotetracen-1-yl)oxy)-2-methyl-4-(((4-((4-methylpiperazin-1-yl)methyl)phenoxy)carbonyl)amino)tetrahydro-2H-pyran-3-yl acetate] | 0.004 | 2.5% | 0.149 | 7.2% | 70.8%
8 | CCCCCCOC(=O)OCn1cc(F)c(=O)[nH]c1=O [Example 24, (5-Fluoro-2,4-dioxo-3,4-dihydropyrimidin-1(2H)-yl)methyl hexyl carbonate] | <0.001 | 0% | 0.094 | 4.6% | 55.7%
9 | COc1ccc(OC(=O)OCn2cc(F)c(=O)[nH]c2=O)cc1 [Example 25, (5-Fluoro-2,4-dioxo-3,4-dihydropyrimidin-1(2H)-yl)methyl (4-methoxyphenyl) carbonate] | 0.151 | 40.5% | 0.451 | 20.2% | 61.3%
